In series [1] the test system is NL4.3-Ren. The format is cell-based, HIV-1. The following applies: text does not say which of assays A and B (Figs. 4 and 5).
For series [2], the system named is NL4.3-Ren. The experiment in a line: Transfection experiment: pNL4.3-Ren viruses produced in 293T cells in presence of drug, quantified and tested for infectivity on SupT1 cells. The format is cell-based, HIV-1. The following applies: drug added to transfected 293T cells for 24h; supernatants on SupT1 cells (Fig. 7a).
Series [3] can be described thus: Cytotoxicity (viability) assay in Huh7/Scr cells (CytoTox-Glo). The format is cell-based. The following applies: human.
Series [4] concerns Luc-Jc1 virus. Nature of the series: HCVcc infection: Luc-Jc1 virus on Huh7/Scr cells, Firefly luciferase.

The source of these data is patent publication EP3147364A1, “ANTIVIRAL AGENTS COMPRISING AN OLIGONUCLEOTIDE-LIPID CONJUGATE FORMING G-QUADRUPLEX” (priority 2015, dated 2017).

On to `CCCC/C=C\C/C=C\CCCCCCCCCOCC(O)CO` (centres unmarked) [3-[(10Z,13Z)-octadeca-10,13-dien-1-yloxy]propane-1,2-diol], for which the antiviral effect result in series [1] was “no effect”.

Regarding `CC(C)CN(C[C@@H](O)[C@H](Cc1ccccc1)NC(=O)O[C@H]1CCOC1)S(=O)(=O)c1ccc(N)cc1` [APV, Amprenavir], the “inhibition of infection by viruses produced in presence of drug” value in series [2] is recorded as “inhibition of infection is detected”.

In turn, `Cc1nc(Nc2ncc(C(=O)Nc3c(C)cccc3Cl)s2)cc(N2CCN(CCO)CC2)n1` [Dasatinib] came in with a CC50 at 72 h in series [3] of 20.3 µM. Besides, it took 1470 nM to reach a half-maximal effect in series [4] (Hepatitis C virus, Huh-7, 72 h) (EC50). In series [4] (Selectivity Index from EC50 and CC50), this compound displayed an SI of 13.81.
